Test results published in patent publication US9459250B2, “Use of T1R3 venus flytrap region polypeptide to screen for taste modulators” (SENOMYX, INC., priority 2003, dated 2016).
pEC50: −log10 of the molar value.

Target: T1, T1R1/T1R3 (Homo sapiens (Human), UniProt Q7RTX0+Q7RTX1)
Assay: Umami FLIPR assay, HEK-Gα15 clone I-17 inducibly expressing T1R1/T1R3
Assay type: cell-based
Details: Table 1 Umami Amides
Method: A dose-dependent response curve was determined for a compound, and the compound concentration corresponding to 50% of the maximal response was derived from the curve, in one example.
Regarding umami tastants and enhancers, scores of their activities can be given as percentage of the maximum MSG intensity (%). In compound dose response, an EC50 can be calculated to reflect the potency of the compound as umami agonist.
(§1) HEK-Gα15 cells were engineered to inducibly express T1R1/T1R3 using the GeneSwitch system (Invitrogen). pGene-derived zeocin-resistant expression vectors for human T1R1 and T1R3 (plasmid SXV603 for T1R1 and SXV611 for T1R3) and a puromycin-resistant pSwitch-derived vector that carries the GeneSwitch protein (plasmid SXV628) were linearized and cotransfected into the HEK-Gα15 cell line. Zeocin-resistant and puromycin-resistant colonies were selected, expanded, induced with variable amounts of mifepristone, and tested by calcium imaging for responses to umami taste stimuli. […] After replacement with 50 μl PBS, stimulation was performed at room temperature by the addition of 50 μl PBS supplemented with different stimuli. The maximal fluorescence from four independent determinations were averaged, corrected for background fluorescence measured prior to compound addition, and normalized to the response to 0.002 mM ionomycin (CALBIOCHEM).

T1 sequence (Q7RTX1 21-841): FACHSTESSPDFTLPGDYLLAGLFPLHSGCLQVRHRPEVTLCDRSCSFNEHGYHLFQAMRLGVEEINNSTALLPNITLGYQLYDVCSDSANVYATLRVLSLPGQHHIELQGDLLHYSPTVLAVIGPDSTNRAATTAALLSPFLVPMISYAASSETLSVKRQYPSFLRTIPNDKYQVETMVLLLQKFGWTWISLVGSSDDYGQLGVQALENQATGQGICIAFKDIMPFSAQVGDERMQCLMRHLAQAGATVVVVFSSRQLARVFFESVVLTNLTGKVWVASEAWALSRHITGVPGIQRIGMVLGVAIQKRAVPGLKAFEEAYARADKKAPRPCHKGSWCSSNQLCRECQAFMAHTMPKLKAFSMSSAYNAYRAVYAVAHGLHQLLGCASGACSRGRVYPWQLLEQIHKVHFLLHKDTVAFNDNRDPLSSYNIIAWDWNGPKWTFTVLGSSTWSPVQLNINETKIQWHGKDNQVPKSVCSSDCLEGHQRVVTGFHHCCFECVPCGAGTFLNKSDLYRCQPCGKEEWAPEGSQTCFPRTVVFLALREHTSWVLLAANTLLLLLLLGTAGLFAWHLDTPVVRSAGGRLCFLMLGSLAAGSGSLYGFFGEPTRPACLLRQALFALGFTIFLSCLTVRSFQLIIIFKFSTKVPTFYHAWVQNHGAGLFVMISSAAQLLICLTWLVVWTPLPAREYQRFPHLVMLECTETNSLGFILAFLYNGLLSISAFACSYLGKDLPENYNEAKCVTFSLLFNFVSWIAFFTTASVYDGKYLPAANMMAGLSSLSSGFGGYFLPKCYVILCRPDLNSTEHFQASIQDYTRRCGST
T1 sequence (Q7RTX0 21-852 C757R): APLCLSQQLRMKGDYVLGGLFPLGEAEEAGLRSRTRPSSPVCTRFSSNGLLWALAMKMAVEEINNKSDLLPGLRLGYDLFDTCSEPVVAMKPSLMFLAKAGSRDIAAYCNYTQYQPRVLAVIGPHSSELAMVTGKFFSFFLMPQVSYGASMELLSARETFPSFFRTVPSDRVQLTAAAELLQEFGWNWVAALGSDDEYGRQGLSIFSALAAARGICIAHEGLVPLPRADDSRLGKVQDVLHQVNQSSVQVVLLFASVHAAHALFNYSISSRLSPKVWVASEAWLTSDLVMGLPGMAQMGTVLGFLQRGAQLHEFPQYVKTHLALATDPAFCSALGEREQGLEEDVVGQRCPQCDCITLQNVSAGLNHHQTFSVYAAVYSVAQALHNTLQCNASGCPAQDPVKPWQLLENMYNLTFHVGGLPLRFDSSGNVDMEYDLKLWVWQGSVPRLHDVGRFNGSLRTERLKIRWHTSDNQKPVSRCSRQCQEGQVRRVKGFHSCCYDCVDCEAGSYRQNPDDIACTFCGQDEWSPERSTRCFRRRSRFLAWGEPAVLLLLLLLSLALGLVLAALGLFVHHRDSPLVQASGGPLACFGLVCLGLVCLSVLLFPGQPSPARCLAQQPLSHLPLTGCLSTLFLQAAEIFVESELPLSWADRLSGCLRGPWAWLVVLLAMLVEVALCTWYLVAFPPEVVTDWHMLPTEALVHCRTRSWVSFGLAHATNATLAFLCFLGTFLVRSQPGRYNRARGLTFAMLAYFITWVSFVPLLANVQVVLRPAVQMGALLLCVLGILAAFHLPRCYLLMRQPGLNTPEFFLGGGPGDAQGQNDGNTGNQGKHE

| pEC50 | SMILES |
| --- | --- |
| 5.83 | COC(=O)[C@@H](CC(C)C)NC(=O)c1ccc2nc(C)oc2c1 [Compound A25] |
| 5.74 | CCCC(CC)NC(=O)c1ccc2c(c1)CCO2 (stereo not shown) [Compound A53] |
| 5.77 | COC(=O)C(NC(=O)c1ccc2oc(C)nc2c1)C(C)C(C)C (stereo not shown) [Compound A28] |
| 6.48 | CCCC(CCC)NC(=O)c1cccc(C(C)(F)F)c1 [Compound A70] |
| 6.28 | COC(=O)[C@@H](CCSC)NC(=O)c1ccc(OC)c(C)c1 [Compound A86] |
| 6.46 | CC[C@@H](C)[C@@](C)(NC(=O)c1ccc2c(c1)OCO2)C(=O)OC [Compound A42] |
| 5.86 | COc1ccc(CNC(O)c2ccccc2-c2ccccc2)c(OC)c1 (stereo not shown) [Compound A104] |
| 5.87 | COC(=O)[C@H]1CCCC[C@H]1NC(=O)c1ccc(OC)c(Cl)c1 [Compound A103] |
| 6.21 | CCCC[C@@H](NC(=O)c1ccc2c(c1)OCO2)C(=O)OC [Compound A44] |
| 6.28 | CCCC(CCC)NC(=O)c1cccc(OC)c1 [Compound A84] |
| 6.06 | COC(=O)[C@@H](CC(C)C)NC(=O)c1ccc2c(c1)OCO2 [Compound A45] |

Same assay, conditions: clone I-17, with and without IMP

| SMILES | activation of T1R1/T1R3 receptor by L-amino acids |
| --- | --- |
| N[C@@H](CC(=O)O)C(=O)O [L-aspartate, reference compound] | significantly activated |

Target: T1, T1R1/T1R3
Assay: Umami enhancement assay: MSG dose response with and without compound
Assay type: cell-based
Details: Table 1; compound @ 0.01 uM
Method: In enhancement assay experiments, a MSG dose response was run and a second MSG dose response was run with a certain amount of candidate compound at every MSG concentrations at the same time. Then, the EC50 ratio is calculated based on the following definitions: EC50 Ratio=EC50(MSG)/EC50(MSG+[Compound])
wherein “[compound]” refers to the concentration of compound used to elicit (or enhance or potentiate) the MSG dose response. Those concentrations can vary from a pM to an mM, more preferred, from a low nM to μM.
as §1

| Ec50 ratio (vs. MSG) | SMILES |
| --- | --- |
| 6.98 | COC(=O)c1ccc(NC(=O)c2c(Cl)ccc(Cl)c2OC)cc1 [Compound A2] |

Same assay, conditions: Table 1; compound @ 0.03 uM

| Ec50 ratio (vs. MSG) | SMILES |
| --- | --- |
| 6.14 | CCOc1ccc(NC(=O)c2cc(Cl)ccc2Cl)cc1 [Compound A3] |

Same assay, conditions: Table 1; compound @ 0.1 uM

| Ec50 ratio (vs. MSG) | SMILES |
| --- | --- |
| 5.12 | CCCC(C)NC(=O)c1ccc(OC)c(Cl)c1 (stereo not shown) [Compound A80] |
| 6.42 | O=C(N[C@H]1CCCc2ccccc21)c1ccc2c(c1)OCO2 [Compound A47] |

Same assay, conditions: Table 1; compound @ 0.3 uM

| Ec50 ratio (vs. MSG) | SMILES |
| --- | --- |
| 4.98 | CCCC(CCC)NC(=O)c1ccc(OC)c(F)c1 [Compound A74] |
| 4.01 | COc1ccc(C(=O)NC2CCc3ccccc32)cc1Cl (stereo not shown) [Compound A106] |
| 6.5 | CCC(COC)NC(=O)c1cc2cc(Cl)ccc2o1 (stereo not shown) [Compound A11] |
| 2.62 | CCCC(CCC)NC(=O)c1ccc(OCC)cc1 [Compound A68] |
| 10.22 | C=Cc1ccc(C(=O)NC(CCC)CCC)cc1 [Compound A78] |

Same assay, conditions: Table 1; compound @ 1 uM

| Ec50 ratio (vs. MSG) | SMILES |
| --- | --- |
| 7.62 | CCCC(CCC)NC(=O)c1ccc(OC)cc1O [Compound A101] |
| 3.74 | CCC(CC)NC(=O)c1cc2ccccc2o1 [Compound A21] |
| 9.53 | CCCC(NC(=O)c1ccc2c(c1)OCO2)C(=O)OC (stereo not shown) [Compound A49] |
| 9.27 | CC(CCc1ccccc1)NC(=O)c1ccc2c(c1)OCO2 (stereo not shown) [Compound A48] |
| 3.8 | COc1cccc(C(=O)NC2CCCc3ccccc32)c1O (stereo not shown) [Compound A87] |
| 6.54 | CCCC(CCC)NC(=O)c1ccc(C)s1 [Compound A38] |
| 2.79 | C=Cc1ccc(C(=O)N[C@H]2CCCc3ccccc32)cc1 [Compound A105] |
| 8.81 | CCCC(CCC)NC(=O)c1ccc2cc[nH]c2c1 [Compound A35] |
| 2.85 | COc1ccc([C@@H](C)NC(=O)c2ccc(OC)c(Cl)c2)cc1 [Compound A89] |
| 5.7 | COc1cccc(C(=O)N[C@H]2CCCc3ccccc32)c1O [Compound A93] |
| 12.6 | CCCC(CCC)NC(=O)c1ccc(Br)o1 [Compound A30] |
| 9.49 | Cc1cc(C(=O)NC2CCCc3ccccc32)ccc1O (stereo not shown) [Compound A102] |
| 2.86 | COC(=O)C(CC(C)C)NC(=O)c1cc2cc(OC)ccc2o1 (stereo in doubt) [Compound A6] |
| 4.46 | CCC(CC)NC(=O)c1cc2cc(OC)ccc2o1 [Compound A13] |
| 2.3 | Cc1ccc(C(=O)NC2CCCc3ccccc32)s1 (stereo not shown) [Compound A39] |
| 2.74 | CCOc1ccc(NC(=O)c2c(Cl)ccc(Cl)c2OC)cc1 [Compound A1] |
| 10.04 | CCCC(CCC)NC(=O)c1cc(C)c(C)o1 [Compound A31] |

Same assay, conditions: Table 1; compound @ 3 uM

| Ec50 ratio (vs. MSG) | SMILES |
| --- | --- |
| 2.14 | CCCCC(CCCC)NC(=O)c1ccc2c(c1)OCO2 [Compound A41] |

Same assay, conditions: Table 3; Con. 0.3 uM

| Ec50 ratio (vs. MSG) | SMILES |
| --- | --- |
| 2.62 | COc1ccc(NC(=O)NC2CCCCC2C)c(OC)c1 (stereo not shown) [Compound C8, 1-(2,4-dimethoxyphenyl)-3-(2-methylcyclohexyl)urea] |
| 2.1 | CCOc1ccc(NC(=O)NC2CCCCC2C)cc1 (stereo not shown) [Compound C10, 1-(4-ethoxyphenyl)-3-(2-methylcyclohexyl)urea] |

Same assay, conditions: Table 3; Con. 1 uM

| Ec50 ratio (vs. MSG) | SMILES |
| --- | --- |
| 4.52 | CCC(NC(=O)Nc1ccc(Cl)cc1Cl)c1ccccc1 (stereo not shown) [Compound C2, 1-(2,4-dichlorophenyl)-3-(1-phenylpropyl)urea] |
| 9.08 | CC(NC(=O)Nc1ccccc1Cl)C1CCCCC1 (stereo not shown) [Compound C5, 1-(2-chlorophenyl)-3-(1-cyclohexylethyl)urea] |
| 3.68 | O=C(Nc1ccccc1Cl)NC1CCCc2ccccc21 (stereo not shown) [Compound C7, 1-(2-chlorophenyl)-3-(1,2,3,4-tetrahydronaphthalen-1-yl)urea] |
| 4.49 | O=C(Nc1ccccc1F)NC1CCCc2ccccc21 (stereo not shown) [Compound C11, 1-(2-fluorophenyl)-3-(1,2,3,4-tetrahydronaphthalen-1-yl)urea] |
| 11.87 | CCC(CC)NC(=O)Nc1ccc(OC)cc1OC [Compound C13, 1-(2,4-dimethoxyphenyl)-3-(pentan-3-yl)urea] |
| 4.95 | CCCC(CCC)NC(=O)Nc1ccccc1Cl [Compound C1, 1-(2-chlorophenyl)-3-(heptan-4-yl)urea] |

Same assay, conditions: Table 3; Con. 3 uM

| Ec50 ratio (vs. MSG) | SMILES |
| --- | --- |
| 12.15 | CCCC(CCC)NC(=O)Nc1ccccc1F [Compound C4, 1-(2-fluorophenyl)-3-(heptan-4-yl)urea] |
| 3.24 | CC1CCCCC1NC(=O)Nc1ccccc1Cl (stereo not shown) [Compound C3, 1-(2-chlorophenyl)-3-(2-methylcyclohexyl)urea] |

Same assay, conditions: Table 4; compound @ 0.3 uM

| Ec50 ratio (vs. MSG) | SMILES |
| --- | --- |
| 2.7 | CCOc1ccc(/C=C/C(=O)NC(C)CC)cc1 (stereo not shown) [Compound D13, (E)-N-sec-butyl-3-(4-ethoxyphenyl)acrylamide] |
| 2.22 | CCCC(CCC)NC(=O)/C=C/c1ccsc1 [Compound D15, (E)-N-(heptan-4-yl)-3-(thiophen-3-yl)acrylamide] |
| 3.48 | CCCC(CCC)NC(=O)/C=C/c1ccc(OC)cc1 [Compound D5, (E)-N-(heptan-4-yl)-3-(4-methoxyphenyl)acrylamide] |

Same assay, conditions: Table 4; compound @ 1 uM

| Ec50 ratio (vs. MSG) | SMILES |
| --- | --- |
| 6.3 | CCCC(CCC)NC(=O)/C=C/c1cccs1 [Compound D6, N-(1-Propyl-butyl)-3-thiophen-2-yl-acrylamide] |
| 9.73 | CC(CCc1ccccc1)NC(=O)/C=C/c1cccs1 (stereo not shown) [Compound D4, N-(1-Methyl-3-phenyl-propyl)-3-thiophen-2-yl-acrylamide] |
| 8.48 | CCC(COC)NC(=O)/C=C/c1ccc(OC)cc1 (stereo not shown) [Compound D14, (E)-N-(1-methoxybutan-2-yl)-3-(4-methoxyphenyl)acrylamide] |
| 3.13 | COc1ccc(/C=C/C(=O)NC(C)CCc2ccccc2)cc1OC (stereo not shown) [Compound D16, (E)-3-(3,4-dimethoxyphenyl)-N-(4-phenylbutan-2-yl)acrylamide] |
| 3.46 | COc1ccc(/C=C/C(=O)NC(C(C)C)C(C)C)cc1 [Compound D1, (E)-N-(2,4-dimethylpentan-3-yl)-3-(4-methoxyphenyl)acrylamide] |
| 9.62 | CCC(CC)NC(=O)/C=C/c1ccc(OC)cc1 [Compound D7, (E)-3-(4-methoxyphenyl)-N-(pentan-3-yl)acrylamide] |

Same assay, conditions: Table 5; compound concentration not given

| Umami EC50 ratio | SMILES |
| --- | --- |
| 6.98 | CC1CCCCC1NC(=O)c1ccc(F)c(F)c1 (stereo not shown) [Compound E81, 3,4-difluoro-N-(2-methylcyclohexyl)benzamide] |
| 2.08 | CC1CCCCC1NC(=O)c1ccnc(Cl)c1 (stereo not shown) [Compound E56, 2-chloro-N-(2-methylcyclohexyl)isonicotinamide] |
| 4.04 | O=C(NC1CCCc2ccccc21)c1cccc(Cl)c1O (stereo not shown) [Compound E7, 3-chloro-2-hydroxy-N(-1,2,3,4-tetrahydronaphthalen-1-yl)benzamide] |
| 2.07 | CC1CCCCC1NC(=O)c1cccc(C(F)(F)F)c1 (stereo not shown) [Compound E59, N-(2-methylcyclohexyl)-3-(trifluoromethyl)benzamide] |
| 16.51 | COc1c(Cl)ccc(Cl)c1C(=O)Nc1ccccc1F [Compound E84, 3,6-dichloro-N-(2-fluorophenyl)-methoxybenzamide] |

| SMILES | Umami EC50 ratio |
| --- | --- |
| COc1cc(C(=O)NC2CCCCC2C)cc(Cl)n1 (stereo not shown) [Compound E40, 2-chloro-6-methoxy-N-(2-methylcyclohexyl)isonicotinamide] | 9.77 |
